Values quoted from earlier work, collected in patent US8465912B2, “Methods for the identification of agents that inhibit mesenchymal-like tumor cells or their formation” (OSI Pharmaceuticals, LLC, priority 2009, dated 2013).

Tests used:
[1] = tested on: carcinoma cells; conditions: cited from earlier work
[2] = tested on: advanced, treatment-refractory NSCLC; conditions: patients with advanced; cited from earlier work
[3] = tested on: pancreatic cancer; conditions: in combination with gemcitabine; cited from earlier work

Question: For `C#Cc1cccc(Nc2ncnc3cc(OCCOC)c(OCCOC)cc23)c1` [erlotinib, [6,7-bis(2-methoxyethoxy)-4-quinazolin-4-yl]-(3-ethynylphenyl) amine], which “Cellular sensitivity after EMT-like transition” value [1] is on record?
Answer: The value was “cellular insensitivity”.

Question: And the “Clinical outcome, phase III monotherapy” value [2]?
Answer: Its value is “significantly prolonged survival, delayed disease progression and delayed worsening of lung cancer-related symptoms”.

Question: And the “Survival, phase III first-line” value [3]?
Answer: The value was “improves survival”.
